Laboratory results: US10342804B2, “Steroid compound for use in the treatment of hepatic encephalopathy” (Umecrine Cognition AB, priority 2014, dated 2019)

Tests used:
[1] = target: T1, human α1β2γ2L GABAA receptors (Homo sapiens, UniProt P14867+P47870); assay: Whole-cell voltage-clamp electrophysiology, HEK-293 cells expressing α1β2γ2L GABAA receptors; type: cell-based; details: α1β2γ2L expressing cells
T1 construct: expressed in transfected cells; host or cells: HEK-293, permanently transfected
T1 sequence (P14867 28-456): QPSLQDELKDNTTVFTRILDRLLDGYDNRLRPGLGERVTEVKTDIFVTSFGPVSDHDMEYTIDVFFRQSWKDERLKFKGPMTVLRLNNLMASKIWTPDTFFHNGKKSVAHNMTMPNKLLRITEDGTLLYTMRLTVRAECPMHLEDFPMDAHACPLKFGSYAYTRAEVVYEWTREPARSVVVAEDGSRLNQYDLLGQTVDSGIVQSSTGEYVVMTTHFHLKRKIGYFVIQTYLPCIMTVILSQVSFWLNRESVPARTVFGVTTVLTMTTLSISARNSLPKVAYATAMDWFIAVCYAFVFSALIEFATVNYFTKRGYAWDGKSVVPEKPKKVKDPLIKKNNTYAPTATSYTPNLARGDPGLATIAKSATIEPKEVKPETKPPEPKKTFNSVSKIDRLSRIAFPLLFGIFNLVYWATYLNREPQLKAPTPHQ
T1 sequence (P47870 25-512 limits assumed): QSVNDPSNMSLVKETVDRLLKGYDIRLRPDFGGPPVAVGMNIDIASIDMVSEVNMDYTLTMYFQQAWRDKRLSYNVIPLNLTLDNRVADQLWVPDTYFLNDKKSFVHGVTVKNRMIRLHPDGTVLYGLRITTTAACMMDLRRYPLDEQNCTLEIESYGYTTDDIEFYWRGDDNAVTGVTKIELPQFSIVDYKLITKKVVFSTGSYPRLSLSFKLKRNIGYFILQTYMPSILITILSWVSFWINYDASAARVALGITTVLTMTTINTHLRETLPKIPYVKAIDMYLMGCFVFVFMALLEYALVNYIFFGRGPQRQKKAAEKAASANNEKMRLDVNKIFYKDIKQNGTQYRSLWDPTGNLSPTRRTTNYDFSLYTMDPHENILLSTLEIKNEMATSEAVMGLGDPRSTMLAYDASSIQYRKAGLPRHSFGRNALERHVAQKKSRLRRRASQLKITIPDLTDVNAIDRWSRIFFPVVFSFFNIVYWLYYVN
T1 sequence (P18507 40-475 partner): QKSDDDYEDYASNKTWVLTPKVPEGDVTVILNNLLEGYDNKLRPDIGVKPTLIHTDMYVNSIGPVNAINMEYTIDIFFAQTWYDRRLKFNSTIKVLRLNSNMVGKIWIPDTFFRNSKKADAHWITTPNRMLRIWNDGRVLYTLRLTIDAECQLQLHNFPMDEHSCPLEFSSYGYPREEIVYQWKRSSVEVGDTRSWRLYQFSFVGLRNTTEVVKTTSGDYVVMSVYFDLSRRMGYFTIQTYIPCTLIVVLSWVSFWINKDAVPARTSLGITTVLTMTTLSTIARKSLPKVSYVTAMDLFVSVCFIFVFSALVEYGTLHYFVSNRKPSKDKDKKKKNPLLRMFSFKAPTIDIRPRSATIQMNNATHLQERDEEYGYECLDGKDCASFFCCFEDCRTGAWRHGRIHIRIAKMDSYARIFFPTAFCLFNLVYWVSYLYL
Description: (§1) For electrophysiology measurements the Dynaflow® system with the Resolve chip was used (Cellectricon, Göteborg, Sweden). HEK-293 cells were permanently transfected with vectors including the human CMV promoter for constitutive expression of the human α5, β3, and γ2L GABAA receptor subunits (α5β3γ2L) or the human α1, β2, and γ2L GABAA receptor subunits (α1β2γ2L). The cell lines used were selected for good reactivity to GABA and to THDOC. Before measurements cells were incubated for 15 min at 37° C. in 95% air+5% CO2 in extracellular solution (EC) containing the following: 137 mM NaCl, 5.0 mM KCl, 1.0 mM CaCl2, 1.2 mM MgCl2, 10 mM HEPES, and 10 mM glucose, 0.1% DMSO pH 7.4. Thereafter, detached cells were added to the EC solution in the Dynaflow chip bath.
(§2) Whole-cell voltage-clamp recordings were made at room temperature (21-23° C., −17 mV with compensation for liquid junction potential as in Haage et al., 2002; Neher, 1992). Command pulses were generate and data collected by PClamp 9.0 software, DigiData 1322A converter, and AxonPatch 200B (Axon Instruments, Foster City, Calif.). Patch electrodes (2-6 MΩ) were filled with intracellular solution (IC) including: 140 mM Cs-gluconate, 3.0 mM NaCl, 1.2 mM MgCl2, 10 mM HEPES, 1.0 mM EGTA, 2 mM Mg-ATP, 0.1% DMSO, pH 7.2.
(§3) THDOC and 3α-ethynyl-3β-hydroxyandrostan-17-one oxime were dissolved in dimethyl sulfoxide (DMSO) and thereafter diluted with EC solution to include 0.1% DMSO.
(§4) Different protocols were used for different electrophysiology measurements. As α1β2γ2L-GABAA receptors in vivo are present within the synapse a condition resembling that situation, a short application (40 ms) of a high GABA concentration (30 μM), was used. Contrary, α5β3γ2L-GABAA receptors are present extrasynaptically, thus the conditions used were long exposures (6 s) to a low GABA concentration (0.3 μM). The EC75 concentration of THDOC was used, i.e. 100 nM with studies of α1β2γ2L and 200 nM when α5β3γ2L expressing cells were evaluated. With both cell types a pre-exposure with THDOC or THDOC plus 3α-ethynyl-3β-hydroxyandrostan-17-one oxime was used before application of GABA.
(§5) Steroid effects in presence of GABA were normalized to controls in order to avoid the effects of inter- and intracellular variation in the measured parameters, each cell was used as its own control and the area under the curve (AUC) was analyzed.

[2] = target: T2, human α5β3γ2L GABAA receptors (Homo sapiens, UniProt P28472+P31644); assay: Whole-cell voltage-clamp electrophysiology, HEK-293 cells expressing α5β3γ2L GABAA receptors; type: cell-based; details: α5β3γ2L expressing cells
T2 construct: expressed in transfected cells; host or cells: HEK-293, permanently transfected
T2 sequence (P31644 32-462): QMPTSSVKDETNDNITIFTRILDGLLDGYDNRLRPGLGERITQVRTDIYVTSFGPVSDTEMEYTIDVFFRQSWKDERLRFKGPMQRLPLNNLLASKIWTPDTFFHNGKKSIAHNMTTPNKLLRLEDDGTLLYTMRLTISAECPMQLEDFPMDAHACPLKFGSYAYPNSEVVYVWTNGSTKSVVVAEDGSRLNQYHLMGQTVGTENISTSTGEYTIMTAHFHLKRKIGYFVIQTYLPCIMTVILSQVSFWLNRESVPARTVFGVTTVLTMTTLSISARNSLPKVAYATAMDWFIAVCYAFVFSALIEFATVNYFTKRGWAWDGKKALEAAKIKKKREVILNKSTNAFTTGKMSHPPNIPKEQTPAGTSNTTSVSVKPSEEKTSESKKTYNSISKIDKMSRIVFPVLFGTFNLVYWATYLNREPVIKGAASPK
T2 sequence (P28472 26-473): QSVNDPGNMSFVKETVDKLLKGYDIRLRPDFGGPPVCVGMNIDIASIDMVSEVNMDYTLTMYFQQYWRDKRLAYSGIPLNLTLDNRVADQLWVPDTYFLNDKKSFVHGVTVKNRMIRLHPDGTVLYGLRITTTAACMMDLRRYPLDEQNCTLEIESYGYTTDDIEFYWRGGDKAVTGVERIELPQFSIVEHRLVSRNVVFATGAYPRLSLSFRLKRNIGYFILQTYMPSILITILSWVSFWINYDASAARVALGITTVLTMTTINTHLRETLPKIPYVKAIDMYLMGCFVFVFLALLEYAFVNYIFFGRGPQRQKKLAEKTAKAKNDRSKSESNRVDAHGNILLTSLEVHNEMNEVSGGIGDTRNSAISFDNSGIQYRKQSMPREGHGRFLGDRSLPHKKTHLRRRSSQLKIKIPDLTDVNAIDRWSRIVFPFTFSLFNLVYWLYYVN
T2 sequence (P18507 40-475 partner): as the sequence (P18507 40-475 partner) above
Description: as §1, §2, §3, §4, §5

## C[C@]12CC[C@@H](O)C[C@H]1CC[C@@H]1[C@@H]2CC[C@]2(C)[C@@H](C(=O)CO)CC[C@@H]12 [THDOC, tetrahydrodeoxycorticosterone, reference compound]
[1]
  EC75 concentration of THDOC: 100 nM
[2]
  EC75 concentration of THDOC: 200 nM
